Results on one compound are retold here after publication PMC9147192, “Small Molecule Arranged Thermal Proximity Coaggregation (smarTPCA)—A Novel Approach to Characterize Protein–Protein Interactions in Living Cells by Similar Isothermal Dose–Responses” (International Journal of Molecular Sciences, 2022).

One assay deals with T1, FECH (Homo sapiens, UniProt P22830).
T1 construct: endogenous in cells; host or cells: HL-60 (ATCC CCL-240)
T1 sequence (P22830 55-423): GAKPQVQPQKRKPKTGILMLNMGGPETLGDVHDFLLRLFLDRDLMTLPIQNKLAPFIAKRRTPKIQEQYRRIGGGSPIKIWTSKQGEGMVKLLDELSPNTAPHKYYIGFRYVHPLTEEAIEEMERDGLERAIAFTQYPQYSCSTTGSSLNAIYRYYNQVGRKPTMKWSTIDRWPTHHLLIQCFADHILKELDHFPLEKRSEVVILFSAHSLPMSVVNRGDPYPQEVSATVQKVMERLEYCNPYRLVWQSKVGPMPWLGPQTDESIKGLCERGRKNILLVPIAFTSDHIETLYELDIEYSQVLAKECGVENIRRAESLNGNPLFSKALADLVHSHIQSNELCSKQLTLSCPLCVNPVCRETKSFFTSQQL
Description: TPP-CCR in living HL-60 cells. Type of assay: cell-based. The source says: (§1) Therefore, we performed TPP with compound concentration range (TPP-CCR) experiments according to published procedures. In brief, after preparing tryptic peptides from the non-denatured protein fractions (used for immunoblotting in the previous sections) applying the SP3 method, the peptides were labeled using TMT10plex, coding for inhibitor concentration, and the samples belonging to a TMT set were combined, offline high-pH fractionated, and analyzed by MS.
(§2) HL-60 cells were expanded as described above for CETSA and TPP-TR to 1.25 million cells per milliliter. […] A number of 2.5 million cells in 2 mL of medium were added to each tube and incubated (1 h, 37 °C). After centrifugation (300 rcf, 3 min, r.t.) and removing all of the supernating culture medium, the cells were washed once with 2 mL and once with 0.5 mL PBS (r.t.) by gently resuspending the cells, followed by centrifugation (300 rcf, 3 min, r.t.) and the complete removal of the supernatants.
(§3) After transferring the cells from the 2 mL Eppendorf tubes into correspondingly labeled PCR tubes (tube strips) using 100 µL of ice-cold PBS supplemented with protease inhibitors for resuspending the cells, the samples were further processed as described above for CETSA and TPP-TR, however, by applying a single treatment temperature of 51 °C.
(§4) For each sample set comprising ten compound concentration range samples, a same volume of the cell extracts containing the fraction of soluble, non-denatured proteins, corresponding to an average of 5 µg total protein, was used for further analysis. The calculated volume was respectively transferred into PCR tubes of a tube strip and supplemented with SDS sample buffer without DTT and bromophenol blue (final concentrations: 7.5% glycerol, 3% SDS, 37.5 mM Tris/HCl pH 7.0) and ddH2O to a final volume of 10 µL, respectively. Reduction and alkylation were performed by addition of 2.5 µL 100 mM dithiothreitol (DTT; incubation: 20 min, 56 °C, 1000 rpm in an Eppendorf ThermoMixer C, covering the tubes with aluminum foil to minimize condensation in the lids) and 3.33 µL 300 mM iodoacetamide (IAA; incubation: 15 min, r.t., in the dark without shaking), as well as 2.5 µL 100 mM DTT (incubation: 15 min, r.t., without shaking; quenching of excess of IAA). […] The beads were collected and washed (3× 200 µL 80% ethanol p.a. in HPLC-MS grade water, 1 × 200 µL acetonitrile (ACN; HPLC gradient grade)) using a device for handling of magnetic particles [patent US20100200405A1]. The ACN of the last washing step was completely removed by aspiration without letting the beads dry out.
(§5) Tryptic digest was performed on-bead by resuspending (use of an ultrasound bath may be required) the beads in 20 µL 50 mM TEAB in HPLC-MS grade water containing 0.1 µg Trypsin/Lys-C mix and 16.5 h incubation at 37 °C and 1000 rpm (Eppendorf ThermoMixer C, covering the tubes with aluminum foil to minimize condensation in the lids). Tryptic fragmentation of proteins was optimized by addition of another 0.1 µg of Trypsin/Lys-C mix in 2 µL 50 mM TEAB and 4 h incubation at 37 °C and 1000 rpm. After centrifugation for about 1 min in a table top centrifuge and magnetic concentration and retention of the beads at the inner tube wall, the supernatants containing the peptides were transferred into new PCR tubes (of tube strips) and were stored at −80 °C. The beads were discarded.
(§6) Half of the peptide samples (11 µL containing about 2.5 µg peptides) were transferred into new PCR tubes (of tube strips) and allowed to equilibrate to r.t. TMT labeling reagents were reconstituted as described for the TPP-TR samples, and 1 µL each was added to the reconstituted peptides according to the following scheme and homogenized immediately by aspiration and dispensing:
(§7) Peptide separation was performed as described above for the analysis of TPP-TR samples. […]

The target of another assay is T2, GANAB (Homo sapiens, UniProt Q14697).
T2 construct: endogenous in cells; host or cells: HL-60 (ATCC CCL-240)
T2 sequence (Q14697 29-944): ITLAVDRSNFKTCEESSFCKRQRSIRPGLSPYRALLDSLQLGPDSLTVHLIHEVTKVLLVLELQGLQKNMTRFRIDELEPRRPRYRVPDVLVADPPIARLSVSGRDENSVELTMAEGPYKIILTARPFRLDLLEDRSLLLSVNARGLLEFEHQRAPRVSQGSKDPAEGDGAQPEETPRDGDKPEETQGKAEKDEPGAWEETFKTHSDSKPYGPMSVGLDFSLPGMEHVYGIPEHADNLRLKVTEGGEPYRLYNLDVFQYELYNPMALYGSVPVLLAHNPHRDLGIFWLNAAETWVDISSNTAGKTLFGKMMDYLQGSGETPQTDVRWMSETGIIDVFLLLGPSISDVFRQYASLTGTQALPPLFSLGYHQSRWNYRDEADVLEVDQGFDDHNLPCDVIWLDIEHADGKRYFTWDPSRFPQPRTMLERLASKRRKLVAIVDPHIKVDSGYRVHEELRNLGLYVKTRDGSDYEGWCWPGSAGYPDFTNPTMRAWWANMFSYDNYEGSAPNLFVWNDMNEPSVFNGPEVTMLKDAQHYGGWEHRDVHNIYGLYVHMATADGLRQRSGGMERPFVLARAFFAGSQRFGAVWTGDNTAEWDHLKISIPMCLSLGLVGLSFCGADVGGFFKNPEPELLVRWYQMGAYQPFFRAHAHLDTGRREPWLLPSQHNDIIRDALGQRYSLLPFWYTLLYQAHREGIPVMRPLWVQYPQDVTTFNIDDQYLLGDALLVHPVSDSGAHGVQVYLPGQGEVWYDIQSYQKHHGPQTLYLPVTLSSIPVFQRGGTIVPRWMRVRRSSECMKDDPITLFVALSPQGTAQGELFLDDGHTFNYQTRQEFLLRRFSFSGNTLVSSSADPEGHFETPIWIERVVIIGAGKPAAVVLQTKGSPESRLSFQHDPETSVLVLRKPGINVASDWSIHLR
Description: TPP-CCR in living HL-60 cells. Format: cell-based.
Description: as §1, §2, §3, §4, §5, §6, §7

Where [1] appears, read: living HL-60 cells, […] °C, TMT-MS.

Molecules are shown by their SMILES.

With `Cc1cnc(Nc2ccc(F)cc2Cl)nc1-c1c[nH]c(C(=O)N[C@H](CO)c2cccc(Cl)c2)c1` [ERK 11e], the Hill slope at FECH (TPP-CCR, living cells, FECH) came out at 0.38; on GANAB (TPP-CCR, living cells, GANAB), 1.81. Moreover, the EC50 at FECH (setting [1]) was 631 nM; at GANAB (living HL-60 cells, […] °C, TMT-MS, read-out: pEC50 (GANAB) (converted)) it was 5250 nM. Besides, the “Hill slope (FECH)” value on FECH (setting [1]) amounted to 0.38. Moreover, the “Hill slope (GANAB)” value at GANAB (setting [1]) is 1.81.
